# Key:
# C4-2 tumor [1] = assay: In vivo stability of PA signal after direct injection at the tumor site; design: species or system mouse; details: 250 μM, 50 μL, 0.625 μmol/kg, direct injection into tumor, 0-60 min
# Procedure: Laser light was used to illuminate the tumor during data collection: 800 nm, 20 mJ for ICG and 725 nm, 20 mJ for MMn.
# Laser wavelength: 800 nm, Laser fluence: 20 mJ/cm^2. Percentage of PA signal after 1 hour=46%
# Laser wavelength: 725 nm, Laser fluence: 20 mJ/cm^2. Percentage of PA signal after 1 hour=91%
# (§1) Male BALB/c nude mice (18±2 g, 4-6 weeks old) were purchased from a commercial source and used according to standard animal guidelines for the care and use of laboratory animals with appropriate ethical oversight board approval.
# Human prostate cancer cell lines C4-2 were purchased from commercial sources and cultured in Dulbecco's Modified Eagle Medium (DMEM) (Life Technologies, NY, USA) supplemented with 10% fetal bovine serum (FBS; Cyclone, UT, USA). […]
# (§2) An optical parametric oscillator (OPO) laser source (Innolas GmbH, Bonn, Germany) emitting 8 ns pulsed lasers was coupled to a multimode optical fiber with a 1500 μm core diameter for the photoacoustic signal excitation. […] This led to the vibration of the tissue, which generated ultrasonic waves that could be recorded by a commercial 128-element linear array transrectal ultrasound transducer. […]
# To confirm the in vivo stability of MMn for PA imaging, MMn was injected directly at the tumor site and the PA signal was measured over time (0-60 mins) with concurrent US imaging. […]
# [2] = Photostability under photoirradiation (UV-Vis absorption over time); type: physicochemical; details: fluence ~18 mJ/cm^2
# Source text: Measurements were taken at 5-minute intervals. Fluence: 20 mJ/cm^2. Laser wavelength: 780 nm.
# Measurements were taken at 5-minute intervals. Fluence: 20 mJ/cm^2. Laser wavelength: 725 nm.
# Measurements were taken at 5-minute intervals. Fluence: 20 mJ/cm^2. Laser wavelength: 740 nm.
# Photostability is also relevant factor to consider for a potential PA contrast agent for clinical applications.
# C4-2 tumor [3] = assay: In vivo PA imaging, prostate tumor mouse model, tail vein injection; details: 500 μM, 200 μL, 5 μmol/kg, after 24 h
# Procedure: as §1
# Human prostate cancer cell lines C4-2 were purchased from commercial sources and cultured in Dulbecco's Modified Eagle Medium (DMEM) (Life Technologies, NY, USA) supplemented with 10% fetal bovine serum (FBS; Cyclone, UT, USA). Cells were incubated at 37° C. in a humidified atmosphere containing 5% CO2. For C4-2 tumor inoculation, C4-2 cells (˜1×10^6) suspended in PBS were injected under the nude mice epidermis of the right flank. Animals were observed every day for any behavioral abnormalities. […]
# as §2
# To test further the PA imaging potential of MMn, in vivo experiments were performed using a prostate tumor mouse model as shown in FIG. 19. […] Normalized PA intensity values were then calculated. […]
smiles,measurement,setting,value
"CC1(C)C(/C=C/C=C/C=C/C=C2\N(CCCCS(=O)(=O)O)c3ccc4ccccc4c3C2(C)C)=[N+](CCCCS(=O)(=O)[O-])c2ccc3ccccc3c21 [ICG, Indocyanine green]",PA signal remaining at tumor site after 1 hour,C4-2 tumor [1],46%
same,change in absorption at 780 nm over photoirradiation,"[2]; 40 μM, 30 minutes",90%
same,photostability upon photoirradiation,"[2]; ICG: 100 μM, 20 minutes, 780 nm",poor photostability
same,increase in normalized PA signal intensity at the tumor site relative to pre-injection,C4-2 tumor [3],No significant increase

# Reference: US20250034158A1, “TEXAPHYRIN DERIVATIVES FOR MANGANESE CHEMOTHERAPY, PHOTOACOUSTIC IMAGING, AND PHOTOTHERMAL THERAPY” (BOARD OF REGENTS, THE UNIVERSITY OF TEXAS SYSTEM, priority 2020, published 2025)
